Measured values published in ChEMBL document CHEMBL3352252, “Design, synthesis and molecular modeling of biquinoline-pyridine hybrids as a new class of potential EGFR and HER-2 kinase inhibitors” (Bioorg Med Chem Lett, 2014).

Key:
[1] = target: Receptor tyrosine-protein kinase erbB-2 (Homo sapiens, UniProt P04626); test: Inhibition of histidine-tagged recombinant HER2 (unknown origin) expressed in Sf9 cells assessed as reduction in enzyme autophosphorylation by DELFIA/time-resolved fluorometry
[2] = target: Epidermal growth factor receptor (Homo sapiens, UniProt P00533); test: Inhibition of histidine-tagged recombinant EGFR cytoplasmic domain (amino acids 645-1186) (unknown origin) expressed in Sf9 cells assessed as reduction in enzyme autophosphorylation by DELFIA/time-resolved fluorometry
A549 = test: Antiproliferative activity against human A549 cells after 48 hrs by MTT assay; type: functional, cell-based; conditions: A549, 48 h
HepG2 = test: Antiproliferative activity against human HepG2 cells after 48 hrs by MTT assay; type: functional, cell-based; conditions: HepG2, 48 h

Sequence of Receptor tyrosine-protein kinase erbB-2 (P04626 whole entry, the tested form may be a part): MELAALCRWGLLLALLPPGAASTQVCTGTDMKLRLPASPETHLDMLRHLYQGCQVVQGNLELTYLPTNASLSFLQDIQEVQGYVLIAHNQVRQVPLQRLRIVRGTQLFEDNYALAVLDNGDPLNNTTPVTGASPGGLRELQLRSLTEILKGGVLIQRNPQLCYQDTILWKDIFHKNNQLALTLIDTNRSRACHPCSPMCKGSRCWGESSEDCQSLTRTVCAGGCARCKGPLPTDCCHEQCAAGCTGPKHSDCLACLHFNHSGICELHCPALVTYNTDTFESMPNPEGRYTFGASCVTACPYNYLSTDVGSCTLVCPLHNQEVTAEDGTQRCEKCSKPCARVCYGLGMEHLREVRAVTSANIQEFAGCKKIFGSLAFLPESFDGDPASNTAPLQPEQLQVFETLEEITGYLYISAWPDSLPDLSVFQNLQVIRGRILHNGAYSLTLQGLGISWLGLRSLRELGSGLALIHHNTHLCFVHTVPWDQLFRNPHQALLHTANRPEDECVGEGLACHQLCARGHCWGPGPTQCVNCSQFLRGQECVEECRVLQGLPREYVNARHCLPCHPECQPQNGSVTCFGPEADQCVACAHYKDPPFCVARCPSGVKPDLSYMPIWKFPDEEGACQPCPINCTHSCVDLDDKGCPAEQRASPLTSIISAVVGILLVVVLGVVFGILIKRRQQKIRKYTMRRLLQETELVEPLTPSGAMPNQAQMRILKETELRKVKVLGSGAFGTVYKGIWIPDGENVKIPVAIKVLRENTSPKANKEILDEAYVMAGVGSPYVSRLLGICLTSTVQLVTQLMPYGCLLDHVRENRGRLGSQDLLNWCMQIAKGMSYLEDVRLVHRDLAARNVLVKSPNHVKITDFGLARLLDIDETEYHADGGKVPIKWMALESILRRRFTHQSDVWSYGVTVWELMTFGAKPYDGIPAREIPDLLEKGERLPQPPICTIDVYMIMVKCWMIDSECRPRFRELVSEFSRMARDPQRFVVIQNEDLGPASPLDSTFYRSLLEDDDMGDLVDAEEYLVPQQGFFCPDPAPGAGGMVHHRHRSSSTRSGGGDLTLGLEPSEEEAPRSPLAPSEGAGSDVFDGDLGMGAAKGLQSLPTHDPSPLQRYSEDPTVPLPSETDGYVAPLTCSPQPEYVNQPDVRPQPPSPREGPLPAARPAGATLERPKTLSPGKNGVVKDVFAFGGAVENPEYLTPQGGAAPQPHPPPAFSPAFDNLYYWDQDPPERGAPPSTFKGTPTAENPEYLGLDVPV
Sequence of Epidermal growth factor receptor (P00533 whole entry, the tested form may be a part): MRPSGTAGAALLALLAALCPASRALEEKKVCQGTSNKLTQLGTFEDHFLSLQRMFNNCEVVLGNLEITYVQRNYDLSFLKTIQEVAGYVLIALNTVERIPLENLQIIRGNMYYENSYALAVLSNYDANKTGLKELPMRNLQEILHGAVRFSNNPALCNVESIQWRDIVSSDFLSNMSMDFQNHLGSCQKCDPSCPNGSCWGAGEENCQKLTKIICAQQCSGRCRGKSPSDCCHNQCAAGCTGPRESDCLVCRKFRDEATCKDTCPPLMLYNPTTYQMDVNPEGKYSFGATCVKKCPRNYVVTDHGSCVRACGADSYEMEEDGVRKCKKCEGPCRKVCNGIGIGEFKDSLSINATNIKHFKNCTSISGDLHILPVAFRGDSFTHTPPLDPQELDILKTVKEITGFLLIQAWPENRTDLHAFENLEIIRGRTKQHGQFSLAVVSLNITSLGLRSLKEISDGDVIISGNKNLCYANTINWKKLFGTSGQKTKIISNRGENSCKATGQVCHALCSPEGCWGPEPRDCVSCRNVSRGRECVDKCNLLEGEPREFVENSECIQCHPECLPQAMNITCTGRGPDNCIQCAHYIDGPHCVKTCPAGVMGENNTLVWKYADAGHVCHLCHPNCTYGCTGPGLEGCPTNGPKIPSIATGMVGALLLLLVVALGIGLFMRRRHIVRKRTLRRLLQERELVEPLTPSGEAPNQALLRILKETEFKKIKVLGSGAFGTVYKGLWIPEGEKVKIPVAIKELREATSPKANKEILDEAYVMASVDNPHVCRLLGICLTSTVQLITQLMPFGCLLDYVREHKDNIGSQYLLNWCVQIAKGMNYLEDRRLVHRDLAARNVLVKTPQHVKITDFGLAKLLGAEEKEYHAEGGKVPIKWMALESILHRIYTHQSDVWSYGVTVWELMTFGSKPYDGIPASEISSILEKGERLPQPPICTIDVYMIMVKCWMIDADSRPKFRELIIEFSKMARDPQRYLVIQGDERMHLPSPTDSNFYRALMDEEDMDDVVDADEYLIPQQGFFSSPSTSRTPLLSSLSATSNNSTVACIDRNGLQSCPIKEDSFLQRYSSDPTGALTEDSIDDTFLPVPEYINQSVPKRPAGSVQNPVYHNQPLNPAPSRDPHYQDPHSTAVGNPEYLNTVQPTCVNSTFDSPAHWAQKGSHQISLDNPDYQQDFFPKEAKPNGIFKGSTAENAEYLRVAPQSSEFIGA

IC50 [1] [µM] | IC50 [2] [µM] | IC50 (A549) [µM] | IC50 (HepG2) [µM] | SMILES
5.2 | 4.3 | 5.4 | 1.9 | COC(=O)C1=C(N)N(c2cccnc2)C2=C(C(=O)CCC2)C1c1cc2cc(C)ccc2n2nnnc12 (stereo not drawn)
 |  | 7.8 | 5.9 | N#CC1=C(N)N(c2cccnc2)C2=C(C(=O)CCC2)C1c1cc2cc(Cl)ccc2n2nnnc12 (stereo not drawn)
 |  | 0.1 | 0.1 | C#Cc1cccc(Nc2ncnc3cc(OCCOC)c(OCCOC)cc23)c1 [ERLOTINIB]
4.1 | 7 | 8.5 | 7.1 | CCOC(=O)C1=C(N)N(c2cccnc2)C2=C(C(=O)CCC2)C1c1cc2cc(C)ccc2n2nnnc12 (stereo not drawn)
1.9 | 1.1 | 1.1 | 1.5 | COC(=O)C1=C(N)N(c2cccnc2)C2=C(C(=O)CCC2)C1c1cc2ccccc2n2nnnc12 (stereo not drawn)
8.9 | 5.4 | 23.1 | 21.2 | COc1ccc2c(c1)cc(C1C(C#N)=C(N)N(c3cccnc3)C3=C1C(=O)CCC3)c1nnnn12 (stereo not drawn)
9 | 8.1 | 0.1 | 1.3 | COC(=O)C1=C(N)N(c2cccnc2)C2=C(C(=O)CCC2)C1c1cc2cc(Cl)ccc2n2nnnc12 (stereo not drawn)
22.7 | 16.7 | 1.3 | 5.5 | CCOC(=O)C1=C(N)N(c2cccnc2)C2=C(C(=O)CCC2)C1c1cc2cc(Cl)ccc2n2nnnc12 (stereo not drawn)
0.8 | 0.2 | 15.4 | 18.3 | CCOC(=O)C1=C(N)N(c2cccnc2)C2=C(C(=O)CCC2)C1c1cc2cc(OC)ccc2n2nnnc12 (stereo not drawn)
2.1 | 1.3 | 6.4 | 6 | COC(=O)C1=C(N)N(c2cccnc2)C2=C(C(=O)CCC2)C1c1cc2cc(OC)ccc2n2nnnc12 (stereo not drawn)
14.8 | 10.4 | 18.1 | 16.1 | Cc1ccc2c(c1)cc(C1C(C#N)=C(N)N(c3cccnc3)C3=C1C(=O)CCC3)c1nnnn12 (stereo not drawn)
5.2 | 4.8 | 13 | 11 | N#CC1=C(N)N(c2cccnc2)C2=C(C(=O)CCC2)C1c1cc2ccccc2n2nnnc12 (stereo not drawn)
0.2 | 0.09 | 0.4 | 0.1 | CCOC(=O)C1=C(N)N(c2cccnc2)C2=C(C(=O)CCC2)C1c1cc2ccccc2n2nnnc12 (stereo not drawn)
